# The source made the active and inactive calls. No cut-off for these calls is given here.
# Assays:
# Acinetobacter baumannii [1] = assay: Antibacterial activity against colistin-resistant Acinetobacter baumannii 24 assessed as reduction in bacterial growth incubated for 24 hrs by standard broth microdilution method; format: functional
# Acinetobacter baumannii [2] = assay: Antibacterial activity against colistin-resistant Acinetobacter baumannii 21R assessed as reduction in bacterial growth incubated for 24 hrs by standard broth microdilution method; format: functional
# Acinetobacter baumannii [3] = assay: Antibacterial activity against colistin-resistant Acinetobacter baumannii 22P assessed as reduction in bacterial growth incubated for 24 hrs by standard broth microdilution method; format: functional
# Acinetobacter baumannii [4] = assay: Antibacterial activity against colistin-resistant Acinetobacter baumannii 14 assessed as reduction in bacterial growth incubated for 24 hrs by standard broth microdilution method; format: functional
# Acinetobacter baumannii [5] = assay: Antibacterial activity against colistin-resistant Acinetobacter baumannii 17 assessed as reduction in bacterial growth incubated for 24 hrs by standard broth microdilution method; format: functional
# Acinetobacter baumannii [6] = assay: Antibacterial activity against Acinetobacter baumannii 21R assessed as fractional inhibitory concentration incubated for 24 hrs by standard broth microdilution method relative to control; format: functional
# Acinetobacter baumannii [7] = assay: Antibacterial activity against Acinetobacter baumannii 22P assessed as fractional inhibitory concentration incubated for 24 hrs by standard broth microdilution method relative to control; format: functional
# Acinetobacter baumannii [8] = assay: Antibacterial activity against colistin-resistant Acinetobacter baumannii 11 assessed as reduction in bacterial growth incubated for 24 hrs by standard broth microdilution method; format: functional
# RAW264.7 [9] = assay: Antiinflammatory activity against mouse RAW264.7 cells assessed as reduction in LPS-induced NO production at 1 to 10 uM incubated for 24 hrs by Griess assay relative to control; format: functional; settings: dose microM 1-10
# [10] = Cytotoxicity against human A549 cells; format: cell-based
# RAW264.7 [11] = assay: Antiinflammatory activity against mouse RAW264.7 cells assessed as reduction in LPS-induced NO production at 50 uM incubated for 24 hrs by Griess assay; format: functional, cell-based
# Acinetobacter baumannii [12] = assay: Potentiation of colistin-induced antibacterial activity against Acinetobacter baumannii 21R assessed as fold reduction in colistin MIC incubated for 24 hrs by standard broth microdilution method; format: functional
# Acinetobacter baumannii [13] = assay: Antibacterial activity against Acinetobacter baumannii 21R assessed as reduction in bacterial growth in presence of colistin incubated for 24 hrs by standard broth microdilution method; format: functional
# Acinetobacter baumannii [14] = assay: Synergistic antibacterial activity against Acinetobacter baumannii 22P assessed as fractional inhibitory concentration index incubated for 24 hrs in presence of colistin by standard broth microdilution method; format: functional
# Acinetobacter baumannii [15] = assay: Potentiation of colistin-induced antibacterial activity against Acinetobacter baumannii 22P assessed as fold reduction in colistin MIC incubated for 24 hrs by standard broth microdilution method; format: functional
# Acinetobacter baumannii [16] = assay: Bactericidal activity against colistin-resistant Acinetobacter baumannii 21R assessed as log10 reduction of bacterial colony forming unit at 2 times of MIC incubated for 4 hrs by time kill curve based analysis; format: functional
# Acinetobacter baumannii [17] = assay: Antibacterial activity against Acinetobacter baumannii 22P assessed as reduction in bacterial growth in presence of colistin incubated for 24 hrs by standard broth microdilution method; format: functional
# Acinetobacter baumannii [18] = assay: Bactericidal activity against colistin-resistant Acinetobacter baumannii 21R at 4 times of MIC incubated for 4 hrs by time kill curve based analysis; format: functional, organism-based
# Acinetobacter baumannii [19] = assay: Bactericidal activity against colistin-resistant Acinetobacter baumannii 22P at 12.5 to 50 uM incubated upto 24 hrs by time kill curve based analysis; format: functional, organism-based; settings: dose microM 12.5-50, time hrs <=24
# Acinetobacter baumannii [20] = assay: Synergistic antibacterial activity against Acinetobacter baumannii 21R assessed as fractional inhibitory concentration index incubated for 24 hrs in presence of colistin by standard broth microdilution method; format: functional
# RAW264.7 [21] = assay: Cytotoxicity against mouse RAW264.7 cells assessed as reduction in cell viability at 1 to 10 uM incubated for 24 hrs; format: cell-based; settings: raw264.7, 24 h, dose 1-10 µM
Molecule,MIC (Acinetobacter baumannii [1]),MIC (Acinetobacter baumannii [2]),MIC (Acinetobacter baumannii [3]),MIC (Acinetobacter baumannii [4]),inhibition (INH) (RAW264.7 [9]),CC50 [10],inhibition (RAW264.7 [11]),further results
CC1CN(C(=O)CC2CCCCC2)CCN1C(=S)Nc1ccc(C(F)(F)F)cc1 (stereo not drawn),3.12 µM,25 µM,6.25 µM,12.5 µM,,,,
COLISTIN,7 µM,1770 µM,3540 µM,56 µM,,,,MIC (Acinetobacter baumannii [5]): > 111 µM; FIC (Acinetobacter baumannii [6]): 0.38; FIC (Acinetobacter baumannii [7]): 0.25; MIC (Acinetobacter baumannii [8]): 14 µM
CC1CN(C(=O)OC(C)(C)C)CCN1C(=S)Nc1cc(C(F)(F)F)cc(C(F)(F)F)c1 (stereo not drawn),,,,3.12 µM,40%,112 µM,Active,
CC(C)(C)OC(=O)N1CCN(C(=S)Nc2cc(C(F)(F)F)cc(C(F)(F)F)c2)CC1,,6.25 µM,12.5 µM,6.25 µM,,109 µM,Active,MIC (Acinetobacter baumannii [5]): 6.25 µM; fold change (FC) (Acinetobacter baumannii [12]): 4; MIC (Acinetobacter baumannii [13]): 0.78 µM; fractional inhibitory concentration index (FICI) (Acinetobacter baumannii [14]): 0.37; fold change (FC) (Acinetobacter baumannii [15]): 4; FIC (Acinetobacter baumannii [6]): 0.12; Activity (Acinetobacter baumannii [16]): 3 log10CFU/ml; MIC (Acinetobacter baumannii [17]): 1.56 µM; Activity (Acinetobacter baumannii [18]): Active; Activity (Acinetobacter baumannii [19]): inactive; FIC (Acinetobacter baumannii [7]): 0.12; MIC (Acinetobacter baumannii [8]): 12.5 µM; fractional inhibitory concentration index (FICI) (Acinetobacter baumannii [20]): 0.5
CC1CN(C(=O)CC(C)(C)C)CCN1C(=S)Nc1cc(C(F)(F)F)cc(C(F)(F)F)c1 (racemic),6.25 µM,6.25 µM,6.25 µM,50 µM,40%,73.2 µM,Active,
CC1CN(C(=O)CC2CCCCC2)CCN1C(=S)Nc1cc(C(F)(F)F)cc(C(F)(F)F)c1 (stereo not drawn),25 µM,3.12 µM,1.56 µM,50 µM,40%,82 µM,Active,
CC1CN(C(=O)Cc2ccccc2)CCN1C(=S)Nc1cc(C(F)(F)F)cc(C(F)(F)F)c1 (stereo not drawn),6.25 µM,3.12 µM,,3.12 µM,,130 µM,Active,MIC (Acinetobacter baumannii [5]): 3.12 µM; MIC (Acinetobacter baumannii [8]): 6.25 µM
CC1CN(C(=O)CC2CCCCC2)CCN1C(=S)Nc1ccc(C#N)cc1 (stereo not drawn),,,,,,,Active,Activity (Acinetobacter baumannii [5]): inactive; Activity (Acinetobacter baumannii [1]): inactive; Activity (Acinetobacter baumannii [2]): inactive; Activity (Acinetobacter baumannii [3]): inactive; Activity (Acinetobacter baumannii [4]): inactive; Activity (Acinetobacter baumannii [8]): inactive
CC(C)(C)OC(=O)N1CCN(C(=S)Nc2cc(C(F)(F)F)cc(C(F)(F)F)c2)C(c2ccccc2)C1 (stereo not drawn),,,,12.5 µM,>=80%,127 µM,Active,MIC (Acinetobacter baumannii [5]): 6.25 µM; Activity (RAW264.7 [21]): Toxic
C[C@@H]1CN(C(=O)CC(C)(C)C)CCN1C(=S)Nc1cc(C(F)(F)F)cc(C(F)(F)F)c1,6.25 µM,6.25 µM,12.5 µM,,,162 µM,,
CC1CN(C(=O)CC2CCCCC2)CCN1C(=S)Nc1ccc([N+](=O)[O-])cc1 (stereo not drawn),,25 µM,12.5 µM,,,,Active,Activity (Acinetobacter baumannii [5]): inactive; Activity (Acinetobacter baumannii [1]): inactive; Activity (Acinetobacter baumannii [4]): inactive; Activity (Acinetobacter baumannii [8]): inactive
CC1CN(C(=O)Cc2ccccc2)CCN1C(=S)Nc1ccc(C(F)(F)F)cc1 (stereo not drawn),,,,,,,Active,Activity (Acinetobacter baumannii [5]): inactive; Activity (Acinetobacter baumannii [1]): inactive; Activity (Acinetobacter baumannii [2]): inactive; Activity (Acinetobacter baumannii [3]): inactive; Activity (Acinetobacter baumannii [4]): inactive; Activity (Acinetobacter baumannii [8]): inactive
O=C(Cc1ccccc1)N1CCN(C(=S)Nc2cc(C(F)(F)F)cc(C(F)(F)F)c2)C(c2ccccc2)C1 (stereo not drawn),,,,,,,Active,MIC (Acinetobacter baumannii [5]): 3.12 µM
O=C(CC1CCCCC1)N1CCN(C(=S)Nc2cc(C(F)(F)F)cc(C(F)(F)F)c2)C(c2ccccc2)C1 (stereo not drawn),3.12 µM,3.12 µM,6.25 µM,,>=80%,125 µM,Active,Activity (RAW264.7 [21]): Toxic; MIC (Acinetobacter baumannii [8]): 3.12 µM
CC(C)(C)CC(=O)N1CCN(C(=S)Nc2cc(C(F)(F)F)cc(C(F)(F)F)c2)C(c2ccccc2)C1 (stereo not drawn),3.12 µM,3.12 µM,3.12 µM,,>=80%,,Active,MIC (Acinetobacter baumannii [8]): 3.12 µM
CC1CN(C(=O)Cc2ccccc2)CCN1C(=S)Nc1ccc(Cl)cc1 (stereo not drawn),,,,,,,Active,Activity (Acinetobacter baumannii [5]): inactive; Activity (Acinetobacter baumannii [1]): inactive; Activity (Acinetobacter baumannii [2]): inactive; Activity (Acinetobacter baumannii [3]): inactive; Activity (Acinetobacter baumannii [4]): inactive; Activity (Acinetobacter baumannii [8]): inactive
CC1CN(C(=O)CC2CCCCC2)CCN1C(=S)Nc1ccc(Cl)cc1 (stereo not drawn),25 µM,12.5 µM,12.5 µM,50 µM,,200 µM,,
C[C@H]1CN(C(=O)CC(C)(C)C)CCN1C(=S)Nc1cc(C(F)(F)F)cc(C(F)(F)F)c1,12.5 µM,6.25 µM,6.25 µM,,,73.5 µM,,
